Key:
[1] = target: T1, GST-PTPbr7 (Mus musculus, UniProt Q62132); assay: PTPbr7 inhibition assay: peptide substrate (malachite green readout); assay type: biochemical; settings: sodium orthovanadate 1 mM; peptide ENDpYINASL 0.1 mM; GST-PTPbr7 4 μg; 30 min, 25° C., pH 7.4; in absence of inhibitor 0.65
T1 construct: purchased PanVera
T1 sequence (Q62132 24-656): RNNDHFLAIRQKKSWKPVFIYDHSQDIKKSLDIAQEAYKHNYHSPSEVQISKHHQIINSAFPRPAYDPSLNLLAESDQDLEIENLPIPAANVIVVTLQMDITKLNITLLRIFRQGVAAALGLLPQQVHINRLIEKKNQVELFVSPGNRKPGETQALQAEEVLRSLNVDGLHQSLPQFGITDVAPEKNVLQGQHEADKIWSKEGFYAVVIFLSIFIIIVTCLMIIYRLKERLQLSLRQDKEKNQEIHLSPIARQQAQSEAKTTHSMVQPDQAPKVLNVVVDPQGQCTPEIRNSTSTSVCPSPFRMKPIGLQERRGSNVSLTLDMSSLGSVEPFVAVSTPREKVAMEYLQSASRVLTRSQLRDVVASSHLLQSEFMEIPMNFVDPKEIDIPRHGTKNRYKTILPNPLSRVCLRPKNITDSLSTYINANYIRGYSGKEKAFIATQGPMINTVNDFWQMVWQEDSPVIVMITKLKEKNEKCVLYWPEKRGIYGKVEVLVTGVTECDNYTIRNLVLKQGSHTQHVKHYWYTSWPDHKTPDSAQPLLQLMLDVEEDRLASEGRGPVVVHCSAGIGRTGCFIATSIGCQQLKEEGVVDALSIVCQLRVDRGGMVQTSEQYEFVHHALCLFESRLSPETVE
Procedure: The ability of a test agent (positive control, non-specific tyrosine phosphatase inhibitor, sodium orthovanadate) to inhibit the dephosphorylation of a peptide having a phosphotyrosine residue by a PTPbr7 fusion protein was determined as follows.GST-PTPbr7 (4 μg, PanVera) is mixed together with the peptide [ENDpYINASL] (0.1 mM, American Peptide Company), with and without sodium orthovanadate (1 mM, SIGMA®-Aldrich), in a total volume of 25 μL assay buffer (50 mM Tris, 0.15 M NaCl, 5 mM DTT, 0.1% BSA), pH 7.4, at 25° C., in separate wells of a ½ volume 96-well microtiter plate (COSTAR #3690 plate), for 30 min.
The reactions were then terminated by the addition of 100 μL of MG/AM stop solution. MG (Malachite Green) solution was obtained from SIGMA®-Aldrich cat no. M9636, and can be prepared by dissolving 500 mg/L in dH2O, filtering the solution with a Whatman #1 filter, and storing at 4° C. AM (Ammonium Molybdate) solution was obtained from SIGMA®Aldrich cat. no. A7302, 42 g/L in 4 M HCl (345 mL concentration HCl/L, stored at 4° C.). MG/AM mixture was prepared by mixing one part AM to 3 parts MG, stirring for at least 30 min, at room temperature, filtering with a Whatman #5, and storing at 4° C. […]
The plate is then incubated at room temperature for 15 min and, after removing any bubbles, the optical density of the solution in each well was read at A620 (620 nm, spectrophotometer). […]

[2] = target: T1, GST-PTPbr7; assay: PTPbr7 inhibition assay: fluorogenic substrate (O-methyl fluorophosphate); assay type: biochemical; settings: sodium orthovanadate 1 mM; O-methyl fluorophosphate 10 μM; GST-PTPbr7 4 μg/mL; 30 min, room temperature; in absence of inhibitor 4100.00
Procedure: The ability of a test agent (positive control, non-specific tyrosine phosphatase inhibitor, sodium orthovanadate) to inhibit the dephosphorylation of a fluorogenic substrate by a PTPbr7 fusion protein was determined as follows.
80 μL of the diluted substrate (final concentration of 10 μM) was then added to each of two wells of a 96-well microtiter plate (COSTAR #3690 plate), followed by, in one of the wells, sodium orthovanadate (1 mM, final concentration), and in both wells, 20 μL of GST-PTPbr7 (4 μg, PanVera) to give a final enzyme concentration in each of the assays of 4 μg/mL. The reactions were incubated at room temperature for 30 min. For each reaction, the fluorescent emission was measured by excitation at 485 nm and emission at 535 nm using a Victor II plate reader (Packard). The presence of the test agent (sodium orthovanadate) in the reaction caused a decrease in the fluorescent signal (1250.00) compared to the reaction in the absence of inhibitor (4100.00).

[3] = system: PTPbr7 mRNA in PC12 cells; settings: PC12 cells following treatment with NGF; Sharma and Lombroso 1995; cited from earlier work
[4] = system: PC12 cells; assay: NGF-induced neurite outgrowth in PC12 cell lines transfected with full length mouse PTPbr7; assay type: cell-based, rat; settings: 50 ng/mL NGF for 6 days
Description: Total mouse brain RNA (Strategene) was subjected to RT-PCR cloning using […] as the 5′ primer, and […] as the 3′ primer (CPMB, see, in particular, Chapter 15, The Polymerase Chain Reaction, Supplement 30). The cDNA clone (full length mouse PTPbr7) was introduced into PC12 cells by transfection using Lipofectamine™ Reagent (Life Technologies) and substantially following the instructional sheet (for adherent cells, see also, CPMB, in particular, Chapter 9, Introduction of DNA into Mammalian Cells, Supplement 39) which specifies the concentration of DNA and reagent, cell density, transfection times, and transfection protocol. Stable cell lines were selected in (200 μg/mL) G418 (Life Technologies), as also provided by the instructional sheet, and the overexpressing cell lines were identified by Northern Blot analysis (see CPMB, in particular, Chapter 4, Preparation and Analysis of RNA, Chapter 4.9.1, Analysis of RNA by Northern Blot Hybridization, Supplement 26). The transfected cell lines were then treated with 50 ng/mL NGF (Life Technologies) for 6 days. The degree of neurite outgrowth was quantitated using photomicrographs where the total number of cells in the field was counted, then the cells were recounted that had one or more neurites that were greater than or equal to one cell body diameter in length, and a “% neurites” was determined.

Row | Compound | optical density 620 nm [1] | fluorescent signal (excitation 485 nm, emission 535 nm) [2] | upregulation of PTPbr7 mRNA [3] [fold] | % Neurite on Day 6 (+NGF) ([4]; cell line br7-9, PTPbr7 expression none) [%] | % Neurite on Day 6 (+NGF) ([4]; cell line br7-11, PTPbr7 expression high) [%] | % Neurite on Day 6 (+NGF) ([4]; cell line br7-12, PTPbr7 expression high) [%] | % Neurite on Day 6 (+NGF) ([4]; cell line br7-13, PTPbr7 expression high) [%]
1 | [Na+].[Na+].[Na+].[O]=[V]([O-])([O-])[O-] [sodium orthovanadate] | 0.10 | 1250.00 |  |  |  |  | 
2 | NGF: Nerve growth factor, a neurotrophic factor which mediates the survival, differentiation and maintenance of specific populations of neurons |  |  | 8 | 52 | 26 | 24 | 32
